Measurements as given in paper PMC5760651, “Peptidomimetic blockade of MYB in acute myeloid leukemia” (Nature Communications, 2018).
Non-standard residues stand in square brackets, D forms with d. Residues, ends and D or L forms follow the SMILES beside them.

Key:
[1] = tested on: AML cells; assay: Flow cytometry of differentiation markers; type: cell-based, human
Method: (§1) Cells were resuspended to a concentration of 1 × 10^6 cells were plated in triplicate in a 12-well tissue culture plate. For assessment of annexin V staining, cells were washed with PBS and then resuspended in PBS with Annexin V-APC (BioLegend) and propidium iodide at a dilution of 1:1000. For intracellular detection of cleaved caspase 3, cells were fixed and permeabilized using the BD Cytofix/Cytoperm Fixation/Permeabilization solution according to the manufacturer’s instructions (BD Biosciences). Cells were then stained using the Alexa Fluor 647-conjugated anti-active caspase-3 (BD Biosciences) at a dilution of 1:50. Cells were incubated for 30 minutes room temperature in the dark, washed, and then analyzed using the BD LSRFortessa cell analyzer. For assessment of differentiation, cells were stained using the anti-human CD14 PE at a dilution of 1:20 (Affymetrix eBiosciences) and anti-human CD66b at a dilution of 1:20 (Affymetrix eBiosciences).

[2] = tested on: MV-411 cells; assay: H3K27Ac ChIP-PCR at the BCL2 enhancer; type: cell-based, human; conditions: 20 μM, 24 h, ChIP-qPCR, compared to TG3 or untreated control, p = 8.6e-3
Method: Cross-linking was ended by the addition of 1/20 volume of 2.5 M Glycine for 5 min at room temperature followed by cell lysis and sonication ([…] Covaris sonicator) to obtain 100- to 500-bp chromatin fragments. H3K27Ac Rabbit polyclonal antibody (Abcam, #4729) was conjugated to Protein A and G Dynabeads per manufacturer's instructions (Thermo Fischer Scientific). Lysates were incubated overnight at 4 °C with antibody-conjugated beads in suspension. Precipitates were then washed sequentially with cold washing solution (1% NP-40, […], 50 mM Hepes-KOH, pH 7.6, 500 mM LiCl, 0.7% Na-Deoxycholate) and then washing solution (50 mM Tris-HCL, pH 8.0, 10 mM EDTA, 50 mM NaCl), then eluted in elution buffer (50 mM Tris-HCL, pH 8.0, 10 mM EDTA, 1% SDS). Reversal of crosslinks in elution buffer overnight at 65 °C followed by digestion of RNA and protein using RNase (Roche, Catalog No. 111119915-001) and Proteinase K (Roche, Catalog No. 03115828001). DNA purification was performed using PureLink PCR Purification Kit per manufacturer's protocol (Invitrogen). qPCR was performed as described below.

[3] = tested on: MOLM-13 cells; assay: RNA-seq transcriptome profiling; type: cell-based, human; conditions: MOLM13 cells, 20 µM, 6 h
Method: Reads were quality and adapter trimmed using “trim_galore” before aligning to human assembly hg19 with STAR v2.5 using the default parameters. Coverage and post-alignment quality were assessed using the Picard tool CollectRNASeqMetrics (http://broadinstitute.github.io/picard/). Read count tables were created using HTSeq v0.6.1. Normalization and expression dynamics were evaluated with DESeq2 using the default parameters.

[4] = tested on: MV-411 cells; assay: Flow cytometric analysis of apoptosis; type: cell-based, human; conditions: 20 μM, 24 h, flow cytometry, p = 5.4e-3
Method: as §1

[5] = tested on: MOLM-13, MV-411, ML-2 and HL-60 cells; assay: Cell viability of AML cell lines; type: cell-based, human; conditions: 6 days, 20 μM TG1, TG2 or TG3, 10 and 20 μM MYBMIM, peptide replacement every 48 h, compared to untreated control
Method: Cells were resuspended and plated at a concentration of 2 × 10^5 cells in 200 μl in 96-well tissue culture plates. Media with peptides was replaced every 48 h. To assess the number of viable cells, cells were resuspended in PBS and 10 µl of suspension was mixed in a 1:1 ratio with 0.4% Trypan Blue (Thermo Fisher) and counted using a hemacytometer (Hausser Scientific, Horsham, PA, USA). To assess viability using an ATP-based assay, cell viability was assessed using the CellTiter-Glo Luminescent Viability assay, according to the manufacturer’s instructions (Promega). Luminescence was recorded using the Infinite M1000Pro plate reader using integration time of 250 ms (Tecan).

[6] = tested on: primary patient-derived MLL-rearranged leukemia cells in NSG mice; assay: Patient-derived MLL-rearranged leukemia xenograft, treatment upon peripheral leukemia; type: in vivo, mouse; conditions: vs vehicle
Method: All mouse experiments were carried out in accordance with the Memorial Sloan Kettering Institutional Animal Care and Use Committee. For toxicity studies, female C57BL/6J mice (The Jackson Laboratory, Bar Harbor, Maine, USA) were treated with MYBMIM peptide suspended in PBS and administered daily through intraperitoneal injection at a dose of 25 mg/kg for a total of 7 days. Mice were sacrificed at the end of treatment for hematologic, biochemical and histologic analyses. For pharmacokinetic studies, C57BL/6J mice (The Jackson Laboratory, Bar Harbor, Maine, USA) were treated with a single IP injection of 25 mg/kg BIO-MYBMIM, and blood plasma was collected 30 min, 2 h, 4 h, and 24 h post-injection. Quantification of BIO-MYBMIM was measured using the Quant-Tag Biotin kit (Vector Labs, cat. # BDK-2000) following the manufacturer instructions. For patient-derived xenografts, two hundred thousand primary AML MLL-rearranged leukemia cells were suspended in […] of PBS and transplanted via tail vein injection into 8-week-old sublethally irradiated (200 rad) female NOD.Cg-Prkdc(scid)Il2rg(tm1Wjl)/SzJ mice (The Jackson Laboratory, Bar Harbor, Maine, USA). Recipient mice were maintained on antibiotic supplementation in chow (0.025% trimethoprim, 0.124% sulfamethoxazole, Sulfatrim). Three days after transplant, mice were randomly assigned to experimental treatment groups. […]

CC[C@@H](C)[C@@H](NC(=O)[C@@H](CCCCN)NC(=O)[C@@H](CCC(=O)O)NC(=O)[C@@H](CC(C)C)NC(=O)[C@@H](CCC(=O)O)NC(=O)[C@@H](CC(C)C)NC(=O)[C@@H](CC(C)C)NC(=O)[C@@H](CC(C)C)NC(=O)[C@@H](CCSC)NC(=O)[C@@H](CO)NC(=O)[C@H](NC(=O)[C@@H](CCC(=O)O)NC(=O)[C@@H](CC(N)=O)NC(=O)[C@@H](CCC(=O)O)NC(=O)[C@@H](CC(C)C)NC(=O)[C@@H](CCCCN)NC(C)=O)[C@H](C)O)C(=O)N[C@H](CCCNC(=N)N)C(=O)N[C@H](CCCCN)C(=O)NCC(=O)NCC(=O)N[C@H](CCCNC(=N)N)C(=O)N[C@H](CCCNC(=N)N)C(=O)N[C@H](CCCNC(=N)N)C(=O)N[C@H](CCC(N)=O)C(=O)N[C@H](CCCNC(=N)N)C(=O)N[C@H](CCCNC(=N)N)C(=O)N[C@H](CCCCN)C(=O)N[C@H](CCCCN)C(=O)N[C@H](CCCNC(=N)N)C(=O)NCC(=O)N[C@H](Cc1ccc(O)cc1)C(N)=O [MYBMIM] (Ac-[dK][dL][dE][dN][dE][dT][dS][dM][dL][dL][dL][dE][dL][dE][dK][dI][dR][dK]GG[dR][dR][dR][dQ][dR][dR][dK][dK][dR]G[dY]-NH2)
CD14, CD66b and CD11b expression [1]: no significant changes | H3K27Ac at the BCL2 enhancer [2]: significant albeit incomplete reduction | BCL2, MYC, GFI1, MTL5, IKZF1 gene expression [3]: significant downregulation | Apoptosis by cell surface annexin V and intracellular caspase 3 cleavage [4]: significant apoptosis | Growth of AML cell lines [5]: sustained, logarithmic reduction of growth | Leukemia burden by bone marrow analysis of human leukemia cells (hCD45) ([6]; NSG mice, 25 mg/kg IP twice daily, 21 days, 6 mice, p = 1.2e-4): significant reduction in leukemia burden | Levels of BCL2 in residual leukemia cells in the bone marrow ([6]; quantitative immunofluorescence, p = 0.3): minimal reduction
